Results on 8 molecules are retold here after the NIST ThermoML archive (doi:10.1021/je600575r).

This series can be described thus: Solid-liquid equilibrium temperature. The following applies: Crystal, visual observation.

Numbers after ± are expanded uncertainties.

With `CCCCCCCCCCCCC1CCCCC1` [dodecylcyclohexane], the Solid-liquid equilibrium temperature reads like this: (100 kPa) 285.8 ± 0.5 K; (19500 kPa) 290.6 ± 0.6 K; (39600 kPa) 295.2 ± 0.6 K; (60900 kPa) 299.9 ± 0.6 K; (79900 kPa) 304.2 ± 0.6 K; (100000 kPa) 308.4 ± 0.6 K.

For the molecule `CCCCCCCCCCC1CCCCC1` [decylcyclohexane], the Solid-liquid equilibrium temperature by setting is: (100 kPa) 271.3 ± 0.5 K; (20000 kPa) 276 ± 0.5 K; (40100 kPa) 280.5 ± 0.6 K; (59900 kPa) 284.8 ± 0.6 K; (80100 kPa) 289.2 ± 0.6 K; (100100 kPa) 293.9 ± 0.6 K.

Take `CCCCCCCCCCCCCCC1CCCCC1` [tetradecylcyclohexane]: the Solid-liquid equilibrium temperature was 297.2 ± 0.9 K (100 kPa); 302.2 ± 0.9 K (20000 kPa); 307 ± 0.9 K (39900 kPa); 311.5 ± 0.9 K (60000 kPa); 316 ± 0.9 K (79900 kPa); 320.3 ± 1 K (100100 kPa).

Take `CCCCCCCCCCCCCCCCCCC1CCCCC1` [octadecylcyclohexane]: the Solid-liquid equilibrium temperature (100 kPa) stood at 314.3 ± 1.1 K, the Solid-liquid equilibrium temperature (20000 kPa) turned out to be 319.3 ± 1.1 K, the Solid-liquid equilibrium temperature (39900 kPa) stood at 324.2 ± 1.1 K and the Solid-liquid equilibrium temperature (59600 kPa) came out at 328.8 ± 1.1 K.

As to `CCCCCCCCCCCCCCCCCCCC1CCCCC1` [nonadecylcyclohexane], the Solid-liquid equilibrium temperature is, setting by setting: (100 kPa) 315.7 ± 0.7 K; (19800 kPa) 320.6 ± 0.7 K; (39500 kPa) 324.8 ± 0.7 K; (59800 kPa) 329.2 ± 0.7 K; (78000 kPa) 333.7 ± 0.7 K.

In the case of `CCCCCCCCCCCCCC1CCCCC1` [cyclohexane, tridecyl-], the Solid-liquid equilibrium temperature runs as follows: (100 kPa) 286.9 ± 1.1 K; (20000 kPa) 291.7 ± 1.1 K; (40200 kPa) 296.3 ± 1.1 K; (60000 kPa) 300.7 ± 1.1 K; (80100 kPa) 304.9 ± 1.1 K; (100000 kPa) 309.1 ± 1.1 K.

Regarding `CCCCCCCCCCCC1CCCCC1` [undecane, 1-cyclohexyl-], the Solid-liquid equilibrium temperature is, setting by setting: (100 kPa) 272.4 ± 0.8 K; (20000 kPa) 276.8 ± 0.8 K; (40000 kPa) 281.3 ± 0.8 K; (60000 kPa) 285.7 ± 0.9 K; (80500 kPa) 289.9 ± 0.9 K; (100000 kPa) 293.9 ± 0.9 K.

On to `CCCCCCCCCCCCCCCC1CCCCC1` [cyclohexane, pentadecyl-], for which the Solid-liquid equilibrium temperature came out at 298.1 ± 1.1 K (100 kPa); 302.6 ± 1.1 K (19300 kPa); 307.6 ± 1.1 K (40000 kPa); 312.3 ± 1.1 K (60100 kPa); 316.8 ± 1.1 K (80300 kPa); 320.8 ± 1.1 K (100100 kPa).
